Test results: patent US10344060B2 (priority 2013, dated 2019)
Read-outs that look alike come from different tables or passages of the source.

Molecular target: hNav1.7 (Homo sapiens, UniProt Q15858)
Assay: cell-based
Type: cell-based
Conditions: for Wash out: PatchXpress Nav1.7, whether block washes out (Yes/No); for Nav1.4/Nav1.7 / Nav1.5/Nav1.7: ratio of PX tonic IC50 values

Sequence of hNav1.7 (Q15858 whole entry): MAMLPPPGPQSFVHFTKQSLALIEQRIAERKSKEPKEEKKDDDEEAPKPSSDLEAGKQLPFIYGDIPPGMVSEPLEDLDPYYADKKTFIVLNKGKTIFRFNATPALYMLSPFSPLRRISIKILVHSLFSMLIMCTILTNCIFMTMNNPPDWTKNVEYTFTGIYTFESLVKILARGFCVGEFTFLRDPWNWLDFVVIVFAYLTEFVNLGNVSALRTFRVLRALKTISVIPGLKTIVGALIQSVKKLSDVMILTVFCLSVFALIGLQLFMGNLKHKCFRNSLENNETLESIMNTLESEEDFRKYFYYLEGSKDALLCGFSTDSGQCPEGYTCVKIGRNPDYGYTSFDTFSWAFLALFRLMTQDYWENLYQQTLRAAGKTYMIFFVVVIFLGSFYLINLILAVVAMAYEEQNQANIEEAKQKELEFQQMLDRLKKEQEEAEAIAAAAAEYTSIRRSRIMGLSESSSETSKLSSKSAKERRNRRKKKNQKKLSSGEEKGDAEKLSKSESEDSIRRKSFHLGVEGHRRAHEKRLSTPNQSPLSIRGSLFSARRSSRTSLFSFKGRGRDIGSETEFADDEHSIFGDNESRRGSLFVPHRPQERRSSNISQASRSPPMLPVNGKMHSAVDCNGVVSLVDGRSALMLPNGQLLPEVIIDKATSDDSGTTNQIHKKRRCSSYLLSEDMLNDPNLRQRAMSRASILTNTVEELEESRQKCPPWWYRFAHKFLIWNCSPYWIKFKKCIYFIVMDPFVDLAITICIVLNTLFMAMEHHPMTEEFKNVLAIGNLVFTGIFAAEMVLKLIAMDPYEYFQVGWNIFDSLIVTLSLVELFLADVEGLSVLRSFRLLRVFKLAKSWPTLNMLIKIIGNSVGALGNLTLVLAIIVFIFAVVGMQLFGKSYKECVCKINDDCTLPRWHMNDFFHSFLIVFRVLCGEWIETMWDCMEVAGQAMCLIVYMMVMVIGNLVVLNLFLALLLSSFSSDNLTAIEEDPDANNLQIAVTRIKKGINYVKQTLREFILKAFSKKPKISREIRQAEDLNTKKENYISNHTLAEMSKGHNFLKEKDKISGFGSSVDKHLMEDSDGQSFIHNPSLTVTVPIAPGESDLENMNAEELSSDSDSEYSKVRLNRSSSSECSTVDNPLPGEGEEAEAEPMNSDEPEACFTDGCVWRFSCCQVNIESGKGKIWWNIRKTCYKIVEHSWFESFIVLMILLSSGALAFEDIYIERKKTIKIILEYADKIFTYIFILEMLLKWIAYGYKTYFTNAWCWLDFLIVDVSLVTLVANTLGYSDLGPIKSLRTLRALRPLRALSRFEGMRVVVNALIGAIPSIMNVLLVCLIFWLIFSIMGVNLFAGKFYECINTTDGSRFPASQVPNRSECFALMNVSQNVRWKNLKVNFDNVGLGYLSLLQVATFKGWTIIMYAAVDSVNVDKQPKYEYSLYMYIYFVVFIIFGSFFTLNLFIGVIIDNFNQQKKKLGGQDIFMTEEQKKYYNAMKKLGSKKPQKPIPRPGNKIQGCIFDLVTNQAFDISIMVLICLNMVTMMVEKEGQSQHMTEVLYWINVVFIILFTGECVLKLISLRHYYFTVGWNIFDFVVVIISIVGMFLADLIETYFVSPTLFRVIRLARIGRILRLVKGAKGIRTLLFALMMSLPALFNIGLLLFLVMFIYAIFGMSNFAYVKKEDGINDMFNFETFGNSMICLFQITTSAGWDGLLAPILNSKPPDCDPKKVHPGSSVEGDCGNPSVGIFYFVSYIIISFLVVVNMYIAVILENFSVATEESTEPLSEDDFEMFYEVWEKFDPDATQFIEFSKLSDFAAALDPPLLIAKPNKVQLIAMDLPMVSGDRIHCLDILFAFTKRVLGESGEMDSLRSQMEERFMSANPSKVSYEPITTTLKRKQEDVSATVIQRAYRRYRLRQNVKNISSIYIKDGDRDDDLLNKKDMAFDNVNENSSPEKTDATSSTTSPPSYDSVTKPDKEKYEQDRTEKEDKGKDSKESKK

Structure (SMILES) | Wash out | IC50 (read-out: Nav1.7 PX IC50) [nM] | IC50 (PatchXpress, tonic, Table 11, read-out: PX hNav1.7 Tonic IC50) [nM] | Nav1.4/Nav1.7 (Table 11) | Nav1.5/Nav1.7 (Table 11)
CCCC[C@@H]1NC(=O)[C@H](Cc2c[nH]c3ccccc23)NC(=O)[C@H](CCCCN)NC(=O)[C@H](CCC(N)=O)NC(=O)[C@@H](NC(=O)[C@H](Cc2ccc(O)cc2)NC(=O)[C@@H](N)Cc2cn(CCOCCOCCOCCOCCOCCOCCOCCOCCOCCOCCOCCOCCOCCOCCOCCOCCOCCOCCOCCOCCOCCOCCOCCNC(=O)c3cc(CNC(=O)CSCc4ccccc4)cc(C(=O)NCCOCCOCCOCCOCCOCCOCCOCCOCCOCCOCCOCCOCCOCCOCCOCCOCCOCCOCCOCCOCCOCCOCCOCCn4cc(C[C@H](N)C(=O)N[C@@H](Cc5ccc(O)cc5)C(=O)N[C@H]5CSSC[C@@H]6NC(=O)[C@@H]7CSSC[C@@H](C(=O)N[C@@H](CCCNC(=N)N)C(=O)N[C@@H](CCCCN)C(=O)N[C@H](C(=O)N[C@H](C(N)=O)[C@@H](C)CC)[C@@H](C)CC)NC(=O)[C@H](Cc8c[nH]c9ccccc89)NC(=O)[C@H](CC(C)C)NC(=O)[C@H](CCCCN)NC(=O)[C@H](CSSC[C@H](NC(=O)[C@H]([C@@H](C)O)NC(=O)[C@H](Cc8c[nH]c9ccccc89)NC(=O)[C@H](CCCC)NC(=O)[C@H](Cc8c[nH]c9ccccc89)NC(=O)[C@H](CCCCN)NC(=O)[C@H](CCC(N)=O)NC5=O)C(=O)N[C@@H](CC(=O)O)C(=O)N[C@@H](CO)C(=O)N[C@@H](CCCCN)C(=O)N[C@@H](CCCNC(=N)N)C(=O)N[C@@H](C)C(=O)N7)NC(=O)[C@H](CCCNC(=N)N)NC(=O)[C@H](CC(C)C)NC(=O)CNC(=O)[C@H](CCC(=O)O)NC6=O)nn4)c3)nn2)CSSC[C@@H]2NC(=O)[C@@H]3CSSC[C@@H](C(=O)N[C@@H](CCCNC(=N)N)C(=O)N[C@@H](CCCCN)C(=O)N[C@H](C(=O)N[C@H](C(N)=O)[C@@H](C)CC)[C@@H](C)CC)NC(=O)[C@H](Cc4c[nH]c5ccccc45)NC(=O)[C@H](CC(C)C)NC(=O)[C@H](CCCCN)NC(=O)[C@H](CSSC[C@H](NC(=O)[C@H]([C@@H](C)O)NC(=O)[C@H](Cc4c[nH]c5ccccc45)NC1=O)C(=O)N[C@@H](CC(=O)O)C(=O)N[C@@H](CO)C(=O)N[C@@H](CCCCN)C(=O)N[C@@H](CCCNC(=N)N)C(=O)N[C@@H](C)C(=O)N3)NC(=O)[C@H](CCCNC(=N)N)NC(=O)[C@H](CC(C)C)NC(=O)CNC(=O)[C@H](CCC(=O)O)NC2=O [Homodimeric Peptide No. 2] | No | 0.241 | – | – | –
CCCC[C@@H]1NC(=O)[C@H](Cc2c[nH]c3ccccc23)NC(=O)[C@H](CCCCN)NC(=O)[C@H](CCC(N)=O)NC(=O)[C@@H](NC(=O)[C@H](Cc2ccc(O)cc2)NC(=O)[C@@H](N)Cc2cn(CCOCCOCCOCCOCCOCCOCCOCCOCCOCCOCCOCCOCCOCCOCCOCCOCCOCCOCCOCCOCCOCCOCCOCCNC(=O)c3cc(CN)cc(C(=O)NCCOCCOCCOCCOCCOCCOCCOCCOCCOCCOCCOCCOCCOCCOCCOCCOCCOCCOCCOCCOCCOCCOCCOCCn4cc(C[C@H](N)C(=O)N[C@@H](Cc5ccc(O)cc5)C(=O)N[C@H]5CSSC[C@@H]6NC(=O)[C@@H]7CSSC[C@@H](C(=O)N[C@@H](CCCNC(=N)N)C(=O)N[C@@H](CCCCN)C(=O)N[C@@H](CCC(=O)O)C(=O)N[C@H](C(N)=O)[C@@H](C)CC)NC(=O)[C@H](Cc8c[nH]c9ccccc89)NC(=O)[C@H](CC(C)C)NC(=O)[C@H](CCCCN)NC(=O)[C@H](CSSC[C@H](NC(=O)[C@H]([C@@H](C)O)NC(=O)[C@H](Cc8c[nH]c9ccccc89)NC(=O)[C@H](CCCC)NC(=O)[C@H](Cc8c[nH]c9ccccc89)NC(=O)[C@H](CCCCN)NC(=O)[C@H](CCC(N)=O)NC5=O)C(=O)N[C@@H](CC(=O)O)C(=O)N[C@@H](CO)C(=O)N[C@@H](CCCCN)C(=O)N[C@@H](CCCNC(=N)N)C(=O)N[C@@H](C)C(=O)N7)NC(=O)[C@H](CCCNC(=N)N)NC(=O)[C@H](CC(C)C)NC(=O)CNC(=O)[C@H](CCC(=O)O)NC6=O)nn4)c3)nn2)CSSC[C@@H]2NC(=O)[C@@H]3CSSC[C@@H](C(=O)N[C@@H](CCCNC(=N)N)C(=O)N[C@@H](CCCCN)C(=O)N[C@@H](CCC(=O)O)C(=O)N[C@H](C(N)=O)[C@@H](C)CC)NC(=O)[C@H](Cc4c[nH]c5ccccc45)NC(=O)[C@H](CC(C)C)NC(=O)[C@H](CCCCN)NC(=O)[C@H](CSSC[C@H](NC(=O)[C@H]([C@@H](C)O)NC(=O)[C@H](Cc4c[nH]c5ccccc45)NC1=O)C(=O)N[C@@H](CC(=O)O)C(=O)N[C@@H](CO)C(=O)N[C@@H](CCCCN)C(=O)N[C@@H](CCCNC(=N)N)C(=O)N[C@@H](C)C(=O)N3)NC(=O)[C@H](CCCNC(=N)N)NC(=O)[C@H](CC(C)C)NC(=O)CNC(=O)[C@H](CCC(=O)O)NC2=O [Homodimeric Peptide No. 7] | No | – | – | – | –
CC[C@H](C)[C@H](NC(=O)[C@@H](NC(=O)[C@H](CCCCN)NC(=O)[C@H](CCC(=O)O)NC(=O)[C@@H]1CSSC[C@@H]2NC(=O)[C@H](C)NC(=O)[C@H](CCCNC(=N)N)NC(=O)[C@H](CCCCN)NC(=O)[C@H](CO)NC(=O)[C@H](CC(=O)O)NC(=O)[C@@H]3CSSC[C@H](NC(=O)[C@H](CCCNC(=N)N)NC(=O)[C@H](CC(C)C)NC(=O)CNC(=O)[C@H](CCC(=O)O)NC(=O)[C@H](CSSC[C@H](NC(=O)[C@@H](N)Cc4ccc(O)cc4)C(=O)N[C@@H](CCC(N)=O)C(=O)N[C@@H](CCCCN)C(=O)N[C@@H](Cc4c[nH]c5ccccc45)C(=O)N[C@@H](CCSC)C(=O)N[C@@H](Cc4c[nH]c5ccccc45)C(=O)N[C@@H]([C@@H](C)O)C(=O)N3)NC2=O)C(=O)N[C@@H](CCCCN)C(=O)N[C@@H](CC(C)C)C(=O)N[C@@H](Cc2c[nH]c3ccccc23)C(=O)N1)[C@@H](C)CC)C(N)=O [compound 67] | – | – | > 1000 | – | –
CC[C@H](C)[C@H](NC(=O)[C@H](Cc1ccc(O)cc1)NC(=O)[C@H](CCCCN)NC(=O)[C@H](CCCNC(=N)N)NC(=O)[C@@H]1CSSC[C@@H]2NC(=O)[C@H](C)NC(=O)[C@H](CCCNC(=N)N)NC(=O)[C@H](CCCCN)NC(=O)[C@H](CO)NC(=O)[C@H](CC(=O)O)NC(=O)[C@@H]3CSSC[C@H](NC(=O)[C@H](CCC(=O)O)NC(=O)[C@H](CC(C)C)NC(=O)CNC(=O)[C@H](CCC(=O)O)NC(=O)[C@H](CSSC[C@H](NC(=O)[C@@H](N)Cc4ccc(O)cc4)C(=O)N[C@@H](CCC(N)=O)C(=O)N[C@@H](CCCCN)C(=O)N[C@@H](Cc4ccccc4)C(=O)N[C@@H](CCSC)C(=O)N[C@@H](Cc4c[nH]c5ccccc45)C(=O)N[C@@H]([C@@H](C)O)C(=O)N3)NC2=O)C(=O)N[C@@H](CCCCN)C(=O)N[C@@H](CC(C)C)C(=O)N[C@@H](Cc2c[nH]c3ccccc23)C(=O)N1)C(N)=O [compound 193] | – | – | – | 217 | 217
CC[C@H](C)[C@H](NC(=O)[C@H](Cc1ccc(O)cc1)NC(=O)[C@H](CCCCN)NC(=O)[C@H](CCCNC(=N)N)NC(=O)[C@@H]1CSSC[C@@H]2NC(=O)[C@H](C)NC(=O)[C@H](CCCNC(=N)N)NC(=O)[C@H](CCCCN)NC(=O)[C@H](CO)NC(=O)[C@H](CC(=O)O)NC(=O)[C@@H]3CSSC[C@H](NC(=O)[C@H](CCC(=O)O)NC(=O)[C@H](CC(C)C)NC(=O)CNC(=O)[C@H](CCC(=O)O)NC(=O)[C@H](CSSC[C@H](NC(=O)[C@@H](N)Cc4ccc(O)cc4)C(=O)N[C@@H](CCC(N)=O)C(=O)N[C@@H](CCCCN)C(=O)N[C@@H](Cc4c[nH]c5ccccc45)C(=O)N[C@@H](CCSC)C(=O)N[C@@H](Cc4c[nH]c5ccccc45)C(=O)N[C@@H]([C@@H](C)O)C(=O)N3)NC2=O)C(=O)N[C@@H](CCCCN)C(=O)N[C@@H](CC(C)C)C(=O)N[C@@H](Cc2cccc3ccccc23)C(=O)N1)C(N)=O [compound 218] | – | – | – | 434 | 833
CSCC[C@@H]1NC(=O)[C@H](Cc2c[nH]c3ccccc23)NC(=O)[C@H](CCCCN)NC(=O)[C@H](CCC(N)=O)NC(=O)[C@@H](NC(=O)[C@@H](N)Cc2ccc(O)cc2)CSSC[C@@H]2NC(=O)[C@@H]3CSSC[C@@H](C(=O)N[C@@H](CCCNC(=N)N)C(=O)N[C@@H](CCCCN)C(=O)N[C@@H](Cc4ccc(O)cc4)C(=O)N[C@@H](Cc4ccc5ccccc5c4)C(N)=O)NC(=O)[C@H](Cc4c[nH]c5ccccc45)NC(=O)[C@H](CC(C)C)NC(=O)[C@H](CCCCN)NC(=O)[C@H](CSSC[C@H](NC(=O)[C@H]([C@@H](C)O)NC(=O)[C@H](Cc4c[nH]c5ccccc45)NC1=O)C(=O)N[C@@H](CC(=O)O)C(=O)N[C@@H](CO)C(=O)N[C@@H](CCCCN)C(=O)N[C@@H](CCCNC(=N)N)C(=O)N[C@@H](C)C(=O)N3)NC(=O)[C@H](CCC(=O)O)NC(=O)[C@H](CC(C)C)NC(=O)CNC(=O)[C@H](CCC(=O)O)NC2=O [compound 233] | – | – | – | 265 | 433
CSCC[C@@H]1NC(=O)[C@H](Cc2c[nH]c3ccccc23)NC(=O)[C@H](CCCCN)NC(=O)[C@H](CCC(N)=O)NC(=O)[C@@H](NC(=O)[C@@H](N)Cc2ccc(O)cc2)CSSC[C@@H]2NC(=O)[C@@H]3CSSC[C@@H](C(=O)N[C@@H](CCCNC(=N)N)C(=O)N[C@@H](CCCCN)C(=O)N[C@@H](Cc4ccc(O)cc4)C(=O)N[C@@H](CC(C)C)C(N)=O)NC(=O)[C@H](Cc4c[nH]c5ccccc45)NC(=O)[C@H](CC(C)C)NC(=O)[C@H](CCCCN)NC(=O)[C@H](CSSC[C@H](NC(=O)[C@H]([C@@H](C)O)NC(=O)[C@H](Cc4c[nH]c5ccccc45)NC1=O)C(=O)N[C@@H](CC(=O)O)C(=O)N[C@@H](CO)C(=O)N[C@@H](CCCCN)C(=O)N[C@@H](CCCNC(=N)N)C(=O)N[C@@H](C)C(=O)N3)NC(=O)[C@H](CCC(=O)O)NC(=O)[C@H](CC(C)C)NC(=O)CNC(=O)[C@H](CCC(=O)O)NC2=O [compound 238] | – | – | – | 241 | 2817
CCCC[C@H](NC(=O)[C@H](Cc1ccc(O)cc1)NC(=O)[C@H](CCCCN)NC(=O)[C@H](CCCNC(=N)N)NC(=O)[C@@H]1CSSC[C@@H]2NC(=O)[C@H](C)NC(=O)[C@H](CCCNC(=N)N)NC(=O)[C@H](CCCCN)NC(=O)[C@H](CO)NC(=O)[C@H](CC(=O)O)NC(=O)[C@@H]3CSSC[C@H](NC(=O)[C@H](CCC(=O)O)NC(=O)[C@H](CC(C)C)NC(=O)CNC(=O)[C@H](CCC(=O)O)NC(=O)[C@H](CSSC[C@H](NC(=O)[C@@H](N)Cc4ccc(O)cc4)C(=O)N[C@@H](CCC(N)=O)C(=O)N[C@@H](CCCCN)C(=O)N[C@@H](Cc4c[nH]c5ccccc45)C(=O)N[C@@H](CCSC)C(=O)N[C@@H](Cc4c[nH]c5ccccc45)C(=O)N[C@@H]([C@@H](C)O)C(=O)N3)NC2=O)C(=O)N[C@@H](CCCCN)C(=O)N[C@@H](CC(C)C)C(=O)N[C@@H](Cc2c[nH]c3ccccc23)C(=O)N1)C(N)=O [compound 239] | – | – | – | 127 | >1575
